Activity calls are given as the source filed them. No cut-off for these calls is given here.

Experimental findings from ChEMBL document CHEMBL5376012, “Consensus screening for a challenging target: the quest for P-glycoprotein inhibitors” (RSC Med Chem, 2024) are described below.

Test [1] addresses ATP-dependent translocase ABCB1 (Homo sapiens, UniProt P08183). As to the kind of experiment: Inhibition of human recombinant P-gp ATPase activity in isolated membranes incubated in presence of verapamil by firefly luciferase based luminescence analysis. The format is cell membranes.
The test system of test [2] is Caco-2. Kind of test: Cytotoxicity against colchicine and vincristine stimulated human Caco-2 cells assessed as reduction in cell viability at 10 uM preincubated for 30 mins followed by colchicine and vincristine addition for 24 hrs by CCK-8 assay relative to control. The format is functional. The conditions noted are these: time 24.5 hrs.
Test [3] relates to Caco-2. As to the kind of experiment: Cytotoxicity against colchicine and vincristine stimulated human Caco-2 cells assessed as reduction in cell viability at 10 uM preincubated for 30 mins followed by colchicine and vincristine addition for 24 hrs by CCK-8 assay. The format is functional, cell-based. The conditions noted are these: time 24.5 hrs.

ATP-dependent translocase ABCB1, sequence (P08183 whole entry): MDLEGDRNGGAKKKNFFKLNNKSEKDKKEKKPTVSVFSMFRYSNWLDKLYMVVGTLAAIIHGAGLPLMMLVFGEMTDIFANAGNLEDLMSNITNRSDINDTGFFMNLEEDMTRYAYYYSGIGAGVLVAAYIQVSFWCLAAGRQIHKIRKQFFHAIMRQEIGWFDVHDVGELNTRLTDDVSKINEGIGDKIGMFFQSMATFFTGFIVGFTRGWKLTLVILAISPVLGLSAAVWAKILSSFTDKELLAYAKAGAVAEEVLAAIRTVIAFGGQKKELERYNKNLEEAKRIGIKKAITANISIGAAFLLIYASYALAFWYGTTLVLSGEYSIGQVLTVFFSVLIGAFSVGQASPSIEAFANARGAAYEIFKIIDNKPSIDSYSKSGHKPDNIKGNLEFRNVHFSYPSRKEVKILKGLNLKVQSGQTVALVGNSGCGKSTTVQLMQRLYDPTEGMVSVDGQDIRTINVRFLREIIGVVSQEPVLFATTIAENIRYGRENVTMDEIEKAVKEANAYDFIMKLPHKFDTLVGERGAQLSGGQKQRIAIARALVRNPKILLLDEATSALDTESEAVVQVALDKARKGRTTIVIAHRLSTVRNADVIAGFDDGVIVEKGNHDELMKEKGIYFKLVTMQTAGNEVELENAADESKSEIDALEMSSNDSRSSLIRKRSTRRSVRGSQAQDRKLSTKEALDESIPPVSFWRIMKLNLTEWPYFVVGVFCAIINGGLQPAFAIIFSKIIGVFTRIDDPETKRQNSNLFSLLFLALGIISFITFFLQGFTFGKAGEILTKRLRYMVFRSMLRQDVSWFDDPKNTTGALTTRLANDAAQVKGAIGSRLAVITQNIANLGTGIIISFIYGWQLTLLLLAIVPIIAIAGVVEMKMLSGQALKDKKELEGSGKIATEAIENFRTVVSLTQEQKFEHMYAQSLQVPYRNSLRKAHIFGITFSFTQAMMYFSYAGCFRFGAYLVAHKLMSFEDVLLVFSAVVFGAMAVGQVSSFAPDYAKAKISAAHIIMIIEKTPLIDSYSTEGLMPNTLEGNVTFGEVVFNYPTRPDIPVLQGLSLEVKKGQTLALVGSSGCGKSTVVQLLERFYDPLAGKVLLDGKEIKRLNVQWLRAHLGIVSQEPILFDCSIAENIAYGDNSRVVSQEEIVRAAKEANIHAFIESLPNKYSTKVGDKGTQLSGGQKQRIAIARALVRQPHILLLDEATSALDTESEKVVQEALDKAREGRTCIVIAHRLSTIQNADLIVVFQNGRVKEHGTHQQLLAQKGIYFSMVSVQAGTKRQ

As to `O=C(O)[C@H]1O[C@@H](Oc2cc3oc(-c4ccc(O)cc4)cc(=O)c3c(O)c2O)[C@H](O)[C@@H](O)[C@@H]1O` [SCUTELLARIN], the IC50 in test [1] was determined as 19.7 µM.

Take `COc1ccc(-c2coc3c4c(cc(O)c3c2=O)OC(=O)C[C@H]4c2ccc(OCc3nccn3C)c(OC)c2)cc1OC`: in the test on Caco-2 [2], the Activity is listed as 30%. In addition, the IC50 in test [1] was found to be 4.8 µM. Regarding `COC(=O)C[C@@H](c1ccc(-c2cc(C(=O)O)ccc2Cl)o1)c1oc(CN2CCN(c3ccc(OC)cc3)CC2)cc(=O)c1O`, in the test on Caco-2 [2], the Activity came out at 30%. Further, the IC50 in test [1] was determined as 4.99 µM.

On to `COc1cc([C@@H](CC(=O)NCCCN2CCOCC2)C2=C(O)[C@@]3(Oc4c(Cl)c(OC)cc(OC)c4C3=O)[C@H](C)CC2=O)ccc1O`, for which the Activity in the test on Caco-2 [2] stood at 30%. Further, in test [1], the IC50 was found to be 3.31 µM. For the compound `CCOC(=O)c1cccc(NC(=O)O[C@@H]2CO[C@H]3[C@@H]2OC[C@@H]3NS(=O)(=O)c2cc(OC)ccc2OC)c1`, in the test on Caco-2 [3], the outcome was inactive. Also, the IC50 in test [1] was greater than 50 µM. With `COc1ccc2c(c1)[C@H](CCNC(=O)C[C@@H](C1=C(O)[C@@]3(Oc4c(Cl)c(OC)cc(OC)c4C3=O)[C@H](C)CC1=O)c1ccc(O)c(OC)c1)C(=O)N2`, the IC50 in test [1] is greater than 50 µM. In the case of `CC(C)C[C@H](NC(=O)[C@H]1CCCN1C(=O)[C@@H](C)NC(=O)COc1cc(O)c2c(=O)c(-c3ccc4c(c3)OCCO4)coc2c1)C(=O)CC(N)=O`, in the test on Caco-2 [3], the outcome was inactive. In addition, the IC50 in test [1] was greater than 50 µM. For the compound `COC(=O)[C@@H](Cc1cccc([N+](=O)[O-])c1O)NC(=O)CCC(=O)OCC(=O)[C@@]1(O)CC[C@@H]2[C@@H]3CCC4=CC(=O)CC[C@]4(C)[C@@H]3CC[C@@]21C`, the IC50 in test [1] worked out at 7.9 µM. As for `CC(=O)c1c(O)c(C)c(O)c2c1OC1=CC(=O)/C(=C(/C)Nc3cc(-c4nnn(CC(=O)O)n4)ccc3O)C(=O)[C@@]12C`, in the test with Caco-2 [2], the Activity stood at 30%. Moreover, the IC50 in test [1] turned out to be 3.17 µM. `CC(C)(C)OC(=O)N[C@H](Cc1ccc(OC(=O)OC(C)(C)C)cc1)C(=O)NCCCC(=O)Oc1ccc2c(=O)c(Oc3ccccc3F)coc2c1`: the IC50 in test [1] is greater than 50 µM.

As for `COc1cc([C@@H](CC(=O)NCCC(=O)Nc2ccccn2)C2=C(O)[C@@]3(Oc4c(Cl)c(OC)cc(OC)c4C3=O)[C@H](C)CC2=O)ccc1O`, in the test on Caco-2 [2], the Activity is on record as 30%. Moreover, in test [1], the IC50 is 1.28 µM. In the case of `COc1cc(CCNC(=O)C[C@@H](C2=C(O)[C@@]3(Oc4c(Cl)c(OC)cc(OC)c4C3=O)[C@H](C)CC2=O)c2ccc(SC)cc2)c([N+](=O)[O-])cc1OC`, the Activity with Caco-2 [2] is given as 30%. Also, the IC50 in test [1] was 2.4 µM.
